# Measured values taken from US12077503B2, “Substituted cyclic amides and their use as herbicides” (FMC CORPORATION, priority 2015, dated 2024).
# What was measured:
# Type in all cases: in vivo
# Kochia (Kochia scoparia) [1] = assay: Test A preemergence; conditions: Bassia scoparia, pre-emergence, 240 h, Preemergence; for pest or weed control at 31 g/ha: 31 g ai/ha, 0 to 100 scale where 0 is no effect and 100 is complete control, read-out: Kochia plant response rating; for pest or weed control at 125 g/ha: 125 g ai/ha, 0 to 100 scale (0 no effect, 100 complete control), read-out: Plant response rating, Kochia
# Outline: (§1)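 Preemergence soil spray on seeded pots or post-emergence spray on 1–2 leaf plants, in loam–sand blend. Greenhouse ~10 d. Visual rating 0–100 against untreated plants.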
# [2] = test system: barnyardgrass (Echinochloa crus-galli); assay: Test A preemergence; conditions: Echinochloa crus-galli, pre-emergence, 240 h, Preemergence; for pest or weed control at 31 g/ha: 31 g ai/ha, 0 to 100 scale where 0 is no effect and 100 is complete control, read-out: Barnyardgrass plant response rating; for pest or weed control at 125 g/ha: 125 g ai/ha, 0 to 100 scale (0 no effect, 100 complete control), read-out: Plant response rating, Barnyardgrass
# Outline: as §1
# [3] = test system: giant foxtail (Setaria faberii); assay: Test A preemergence; conditions: Setaria faberi, pre-emergence, 240 h, Preemergence; for pest or weed control at 31 g/ha: 31 g ai/ha, 0 to 100 scale where 0 is no effect and 100 is complete control, read-out: Foxtail, Giant plant response rating; for pest or weed control at 125 g/ha: 125 g ai/ha, 0 to 100 scale (0 no effect, 100 complete control), read-out: Plant response rating, Foxtail, Giant
# Outline: as §1
# [4] = test system: pigweed (Amaranthus retroflexus); assay: Test A preemergence; conditions: Amaranthus retroflexus, pre-emergence, 240 h, Preemergence; for pest or weed control at 31 g/ha: 31 g ai/ha, 0 to 100 scale where 0 is no effect and 100 is complete control, read-out: Pigweed plant response rating; for pest or weed control at 125 g/ha: 125 g ai/ha, 0 to 100 scale (0 no effect, 100 complete control), read-out: Plant response rating, Pigweed
# [5] = test system: ragweed (common ragweed, Ambrosia elatior); assay: Test A preemergence; conditions: Ambrosia artemisiifolia, pre-emergence, 240 h, Preemergence; for pest or weed control at 31 g/ha: 31 g ai/ha, 0 to 100 scale where 0 is no effect and 100 is complete control, read-out: Ragweed plant response rating; for pest or weed control at 125 g/ha: 125 g ai/ha, 0 to 100 scale (0 no effect, 100 complete control), read-out: Plant response rating, Ragweed
# Outline: as §1
# [6] = test system: ryegrass, Italian (Italian ryegrass, Lolium multiflorum); assay: Test A preemergence; conditions: Lolium multiflorum, pre-emergence, 240 h, Preemergence; for pest or weed control at 31 g/ha: 31 g ai/ha, 0 to 100 scale where 0 is no effect and 100 is complete control, read-out: Ryegrass, Italian plant response rating; for pest or weed control at 125 g/ha: 125 g ai/ha, 0 to 100 scale (0 no effect, 100 complete control), read-out: Plant response rating, Ryegrass, Italian
# Outline: as §1
# Kochia (Kochia scoparia) [7] = assay: Test A postemergence; conditions: Bassia scoparia, post-emergence, 240 h, Postemergence, read-out: Kochia plant response rating (0 to 100 scale); for pest or weed control at 125 g/ha: 125 g ai/ha, visual rating about 10 d after treatment; for pest or weed control at 31 g/ha: 31 g ai/ha, 0 is no effect, 100 is complete control
# Outline: as §1
# [8] = test system: barnyardgrass (Echinochloa crus-galli); assay: Test A postemergence; conditions: Echinochloa crus-galli, post-emergence, 240 h, Postemergence; for pest or weed control at 125 g/ha: 125 g ai/ha, visual rating about 10 d after treatment, read-out: Barnyardgrass plant response rating (0 to 100 scale, 0 no effect, 100 complete control); for pest or weed control at 31 g/ha: 31 g ai/ha, 0 is no effect, 100 is complete control, read-out: Barnyardgrass plant response rating (0 to 100 scale)
# Outline: as §1
# [9] = test system: blackgrass (Alopecurus myosuroides); assay: Test A postemergence; conditions: Alopecurus myosuroides, post-emergence, 240 h, Postemergence, read-out: Blackgrass plant response rating (0 to 100 scale); for pest or weed control at 125 g/ha: 125 g ai/ha, visual rating about 10 d after treatment; for pest or weed control at 31 g/ha: 31 g ai/ha, 0 is no effect, 100 is complete control
# Outline: as §1
# corn (Zea mays) = assay: Test A postemergence; conditions: Zea mays, post-emergence, 240 h, Postemergence, read-out: Corn plant response rating (0 to 100 scale); for plant injury at 125 g/ha: 125 g ai/ha, visual rating about 10 d after treatment; for plant injury at 31 g/ha: 31 g ai/ha, 0 is no effect, 100 is complete control
# Outline: as §1
# [10] = test system: giant foxtail (Setaria faberii); assay: Test A postemergence; conditions: Setaria faberi, post-emergence, 240 h, Postemergence, read-out: Foxtail, Giant plant response rating (0 to 100 scale); for pest or weed control at 125 g/ha: 125 g ai/ha, visual rating about 10 d after treatment; for pest or weed control at 31 g/ha: 31 g ai/ha, 0 is no effect, 100 is complete control
# Outline: as §1
# [11] = test system: pigweed (Amaranthus retroflexus); assay: Test A postemergence; conditions: Amaranthus retroflexus, post-emergence, 240 h, Postemergence, read-out: Pigweed plant response rating (0 to 100 scale); for pest or weed control at 125 g/ha: 125 g ai/ha, visual rating about 10 d after treatment; for pest or weed control at 31 g/ha: 31 g ai/ha, 0 is no effect, 100 is complete control
# Outline: as §1
# [12] = test system: ragweed (common ragweed, Ambrosia elatior); assay: Test A postemergence; conditions: Ambrosia artemisiifolia, post-emergence, 240 h, Postemergence, read-out: Ragweed plant response rating (0 to 100 scale); for pest or weed control at 125 g/ha: 125 g ai/ha, visual rating about 10 d after treatment; for pest or weed control at 31 g/ha: 31 g ai/ha, 0 is no effect, 100 is complete control
# Outline: as §1
# [13] = test system: ryegrass, Italian (Italian ryegrass, Lolium multiflorum); assay: Test A postemergence; conditions: Lolium multiflorum, post-emergence, 240 h, Postemergence, read-out: Ryegrass, Italian plant response rating (0 to 100 scale); for pest or weed control at 125 g/ha: 125 g ai/ha, visual rating about 10 d after treatment; for pest or weed control at 31 g/ha: 31 g ai/ha, 0 is no effect, 100 is complete control
# Outline: as §1
# [14] = test system: wheat (Triticum aestivum); assay: Test A postemergence; conditions: Triticum aestivum, post-emergence, 240 h, Postemergence, read-out: Wheat plant response rating (0 to 100 scale); for plant injury at 125 g/ha: 125 g ai/ha, visual rating about 10 d after treatment; for plant injury at 31 g/ha: 31 g ai/ha, 0 is no effect, 100 is complete control
# Outline: as §1
# [15] = test system: barnyardgrass (Echinochloa crus-galli); assay: Test B flooded paddy test; conditions: Echinochloa crus-galli, 360 h, Flood, 250 g ai/ha; visually evaluated after 13 to 15 d; read-out: Plant response rating, Barnyardgrass (0 to 100 scale where 0 is no effect and 100 is complete control)
# Outline: (§2)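 Percent control, visually estimated after 13–15 d in the greenhouse on a 0–100 basis, compares treated pots with untreated ones; compound was put into paddy water 3 cm above the soil when plants had two leaves.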
# [16] = test system: ducksalad (Heteranthera limosa); assay: Test B flooded paddy test; conditions: Heteranthera limosa, 360 h, Flood, 250 g ai/ha; visually evaluated after 13 to 15 d; read-out: Plant response rating, Ducksalad (0 to 100 scale where 0 is no effect and 100 is complete control)
# Outline: as §2
# rice (Oryra sativa) = assay: Test B flooded paddy test; conditions: Oryza sativa, 360 h, Flood, 250 g ai/ha; visually evaluated after 13 to 15 d; read-out: Plant response rating, Rice (0 to 100 scale where 0 is no effect and 100 is complete control)
# Outline: as §2
# [17] = test system: sedge, umbrella (small-flower umbrella sedge, Cyperus difformis); assay: Test B flooded paddy test; conditions: Cyperus difformis, 360 h, Flood, 250 g ai/ha; visually evaluated after 13 to 15 d; read-out: Plant response rating, Sedge, Umbrella (0 to 100 scale where 0 is no effect and 100 is complete control)
# Outline: as §2
smiles,measurement,setting,value
CN1C[C@H](c2ccc3c(c2)OC(F)(F)O3)[C@@H](C(=O)Nc2cccnc2F)C1=O [Compound 1346],pest or weed control at 31 g/ha,Kochia (Kochia scoparia) [1],10%
same,pest or weed control at 125 g/ha,Kochia (Kochia scoparia) [1],80%
same,pest or weed control at 31 g/ha,[2],40%
same,pest or weed control at 125 g/ha,[2],90%
same,pest or weed control at 31 g/ha,[3],90%
same,pest or weed control at 125 g/ha,[3],100%
same,pest or weed control at 31 g/ha,[4],80%
same,pest or weed control at 125 g/ha,[4],90%
same,pest or weed control at 31 g/ha,[5],0%
same,pest or weed control at 125 g/ha,[5],90%
same,pest or weed control at 31 g/ha,[6],10%
same,pest or weed control at 125 g/ha,[6],30%
same,pest or weed control at 125 g/ha,Kochia (Kochia scoparia) [7],30%
same,pest or weed control at 31 g/ha,Kochia (Kochia scoparia) [7],0%
same,pest or weed control at 125 g/ha,[8],80%
same,pest or weed control at 31 g/ha,[8],60%
same,pest or weed control at 125 g/ha,[9],20%
same,pest or weed control at 31 g/ha,[9],30%
same,plant injury at 125 g/ha,corn (Zea mays),40%
same,plant injury at 31 g/ha,corn (Zea mays),0%
same,pest or weed control at 125 g/ha,[10],90%
same,pest or weed control at 31 g/ha,[10],60%
same,pest or weed control at 125 g/ha,[11],20%
same,pest or weed control at 31 g/ha,[11],0%
same,pest or weed control at 125 g/ha,[12],0%
same,pest or weed control at 31 g/ha,[12],0%
same,pest or weed control at 125 g/ha,[13],20%
same,pest or weed control at 31 g/ha,[13],0%
same,plant injury at 125 g/ha,[14],60%
same,plant injury at 31 g/ha,[14],30%
same,pest or weed control at 250 g/ha,[15],90%
same,pest or weed control at 250 g/ha,[16],90%
same,pest or weed control at 250 g/ha,rice (Oryra sativa),0%
same,pest or weed control at 250 g/ha,[17],0%
CN1C[C@H](c2ccc3c(c2)OC(F)(F)O3)[C@@H](C(=O)Nc2ccccc2C(F)(F)F)C1=O [Compound 1352],pest or weed control at 31 g/ha,Kochia (Kochia scoparia) [1],20%
same,pest or weed control at 125 g/ha,Kochia (Kochia scoparia) [1],60%
same,pest or weed control at 31 g/ha,[2],80%
same,pest or weed control at 125 g/ha,[2],90%
same,pest or weed control at 31 g/ha,[3],100%
same,pest or weed control at 125 g/ha,[3],100%
same,pest or weed control at 31 g/ha,[4],0%
same,pest or weed control at 125 g/ha,[4],80%
same,pest or weed control at 31 g/ha,[5],0%
same,pest or weed control at 125 g/ha,[5],30%
same,pest or weed control at 31 g/ha,[6],0%
same,pest or weed control at 125 g/ha,[6],40%
same,pest or weed control at 125 g/ha,Kochia (Kochia scoparia) [7],0%
same,pest or weed control at 31 g/ha,Kochia (Kochia scoparia) [7],0%
same,pest or weed control at 125 g/ha,[8],60%
same,pest or weed control at 31 g/ha,[8],60%
same,pest or weed control at 125 g/ha,[9],30%
same,pest or weed control at 31 g/ha,[9],0%
same,plant injury at 125 g/ha,corn (Zea mays),0%
same,plant injury at 31 g/ha,corn (Zea mays),0%
same,pest or weed control at 125 g/ha,[10],80%
same,pest or weed control at 31 g/ha,[10],60%
same,pest or weed control at 125 g/ha,[11],0%
same,pest or weed control at 31 g/ha,[11],0%
same,pest or weed control at 125 g/ha,[12],0%
same,pest or weed control at 31 g/ha,[12],0%
same,pest or weed control at 125 g/ha,[13],0%
same,pest or weed control at 31 g/ha,[13],0%
same,plant injury at 125 g/ha,[14],20%
same,plant injury at 31 g/ha,[14],0%
same,pest or weed control at 250 g/ha,[15],60%
same,pest or weed control at 250 g/ha,[16],70%
same,pest or weed control at 250 g/ha,rice (Oryra sativa),0%
same,pest or weed control at 250 g/ha,[17],0%
